Measured values as given in patent publication US20240173311A1, “METHODS AND COMPOSITIONS FOR MODULATING FGF ACTIVITY” (Recovery Therapeutics, Inc., priority 2021, published 2024).

How the values were obtained:
[1] = target: T1, purified FGF-2/FGFR1 complex (Homo sapiens, UniProt P09038+P11362); assay: Thermal stability assay (TSA) melting curve of the complex (FIG. 1); type: binding; settings: 25 μM compound, versus complex alone
T1 construct: made in house; host or cells: Escherichia coli BL21 (DE3) Star
T1 sequence (P11362 142-365 limits assumed): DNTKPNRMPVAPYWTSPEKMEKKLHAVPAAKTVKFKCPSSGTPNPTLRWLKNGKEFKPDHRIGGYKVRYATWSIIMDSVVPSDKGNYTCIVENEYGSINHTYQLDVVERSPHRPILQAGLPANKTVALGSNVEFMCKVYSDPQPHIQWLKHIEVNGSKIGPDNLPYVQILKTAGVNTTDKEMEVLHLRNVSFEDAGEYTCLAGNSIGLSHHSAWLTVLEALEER
T1 sequence (P09038 156-288 limits assumed): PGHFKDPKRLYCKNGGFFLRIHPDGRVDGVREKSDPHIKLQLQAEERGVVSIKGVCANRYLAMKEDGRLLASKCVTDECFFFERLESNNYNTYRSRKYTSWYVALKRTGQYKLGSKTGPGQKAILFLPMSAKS
Procedure: FIG. 1 is a graph showing the thermal stability assay (TSA) data of purified FGF-2.FGFR1 complex with and without the addition of Compound 1o (dotted line: without Compound 1o; solid line: 25 μM Compound 1o).
TSA was utilized to biophysically characterize the recombinant human FGFR1/FGF2 complex in the presence or absence of selected compounds of formula (I), Compounds 1, 2a-2f, 20, 5, 60, and 8-13. Compound 1 was prepared according to the procedures described in Example 1, and the other compounds were obtained from commercial sources. The assay functions by protein denaturation over a temperature gradient. […] Changes in the melting temperature of the protein complex in the presence of each compound were monitored and compounds were screened/ranked using this method.
Complex formation was verified by loading the complexed material on a size exclusion column (superdex 10 300GL S200) and observing the monodisperse peak corresponding to the FGF2/FGFR1 complex (˜ 40 kDa). […] The samples were processed using a Bio-Rad CFX C96 Touch quantitative polymerase chain reaction and run using the FRET assay settings with a heating ramp of 0.3° C./s cycling from 4 to 100° C. Data analysis was performed using the Bio-Rad CFX Manager Software (version 3.1, Bio-Rad) and changes in the melting temperature (Tm) of the complex in the presence of each compound were monitored. […]

FGFR1 = FGFR1 (Homo sapiens, UniProt P11362); assay: Phosphorylation of FGFR1 in a cell-based system; settings: cells expressing FGFR1, increasing concentrations, submaximal concentration of FGF-2, FIG. 2
Sequence of FGFR1 (P11362 22-822, species assumed): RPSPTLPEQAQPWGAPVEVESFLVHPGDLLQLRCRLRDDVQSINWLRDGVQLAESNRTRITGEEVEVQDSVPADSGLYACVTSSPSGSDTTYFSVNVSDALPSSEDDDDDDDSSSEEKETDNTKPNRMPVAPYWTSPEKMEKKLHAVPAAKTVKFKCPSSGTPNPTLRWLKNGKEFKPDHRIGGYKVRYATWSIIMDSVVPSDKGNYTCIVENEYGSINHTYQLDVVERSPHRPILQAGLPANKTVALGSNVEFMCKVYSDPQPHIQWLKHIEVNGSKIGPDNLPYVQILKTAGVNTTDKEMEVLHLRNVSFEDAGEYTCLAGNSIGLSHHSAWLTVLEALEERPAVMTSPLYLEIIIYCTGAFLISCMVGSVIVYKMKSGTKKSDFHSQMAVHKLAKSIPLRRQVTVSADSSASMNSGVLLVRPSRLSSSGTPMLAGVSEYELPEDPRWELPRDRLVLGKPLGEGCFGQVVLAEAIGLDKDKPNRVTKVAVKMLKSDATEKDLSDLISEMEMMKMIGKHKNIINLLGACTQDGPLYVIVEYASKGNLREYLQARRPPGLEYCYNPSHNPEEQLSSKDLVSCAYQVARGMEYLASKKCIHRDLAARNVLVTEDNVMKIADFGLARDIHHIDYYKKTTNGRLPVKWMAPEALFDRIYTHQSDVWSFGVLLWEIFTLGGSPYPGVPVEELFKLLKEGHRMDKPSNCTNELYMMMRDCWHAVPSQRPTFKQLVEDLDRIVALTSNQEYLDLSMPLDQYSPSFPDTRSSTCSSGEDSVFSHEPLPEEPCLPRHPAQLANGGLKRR
Sequence of FGFR1 (P09038 143-288 partner, species assumed): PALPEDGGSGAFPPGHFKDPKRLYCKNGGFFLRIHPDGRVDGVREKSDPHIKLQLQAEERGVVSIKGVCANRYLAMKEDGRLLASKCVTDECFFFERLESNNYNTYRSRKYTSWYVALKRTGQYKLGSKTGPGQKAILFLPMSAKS
Procedure: FIG. 2 is a graph showing the phosphorylation of FGFR1 in the presence of increasing concentrations of Compound 1o in a cell-based system.
Cells expressing FGFR1 were exposed to increasing concentrations of Compound 10 in the presence of a submaximal concentration of FGF-2. Cells were then lysed, and the relative phosphorylation of FGFR1 was assessed using antibodies to non-phosphorylated and phosphorylated FGFR1. The results are shown in FIG. 2, which is a graph showing the phosphorylation of FGFR1 in the presence of increasing concentrations of Compound 10.

[2] = test system: rodent model of stroke recovery (MCAO); assay: Stroke recovery in vivo after middle cerebral artery occlusion (MCAO); settings: rat MCAO, 10 mg/kg i.v. on Day 1, 2, 3 after MCAO
Procedure: Compound 10 was tested for its effectiveness in a rodent model of stroke recovery. Twenty male Sprague Dawley Rats (Charles River Laboratories) each weighing 300-400 g were used in this experiment. First, anesthesia was induced in an induction chamber with 2-3% isoflurane in N2O:O2 (2:1) and maintained with 1-1.5% isoflurane via face mask. Adequate depth of anesthesia was assessed by lack of withdrawal to hindlimb pinch and loss of eyeblink reflex. Once anesthetized, animals received cefazolin sodium (40 mg/kg, i.p.) and buprenorphine SR (0.9-1 mg/kg, s.c.). Cefazolin was used as a prophylactic antibiotic. A veterinary ophthalmic ointment (Sodium Chloride hypertonicity ophthalmic ointment (Muro 128 Sterile Ophthalmic 5% Ointment)) was applied to the eyes. […]
Behavioral evaluations of sensorimotor function were done by investigators blinded to treatment assignment. […] For the forelimb-placing test, the examiner held the rat close to a tabletop and scored the rat's ability to place the forelimb on the tabletop in response to whisker, visual, tactile, or proprioceptive stimulation. Similarly, for the hindlimb placing test, the examiner assessed the rat's ability to place the hindlimb on the tabletop in response to tactile and proprioceptive stimulation. […]

human coronavirus 229E = assay: Anti-coronavirus activity, cell survival (XTT) of infected HAP1 cells; type: cell-based; settings: in combination with FGF-2 (1 ng/ml), compound 0.002-1 μM, 4 days incubation, FIG. 7
Procedure: FIG. 7 is a graph showing the cell survival of HAP1 cells infected with human coronavirus 229E following a 4-day incubation period in the presence of Compound 1o. Compound 1o (0.002 μM, 0.008 μM, 0.04 μM, 0.2 μM, or 1 uM) and FGF-2 (1 ng/mL) were added on Day -1, Day 0, Day 1, and Day 2 of infection by human coronavirus 229E.
(§1) Compound 10 was evaluated for its ability to reduce human coronavirus 229E induced cellular toxicity in HAP1 cells with and without the addition of a low concentration of FGF-2. HAP1 cells were seeded at a density of 1×10^4 cells/well in a volume of 100 μL in DMEM supplemented with 10% FBS. Following a 24-hour incubation at 37° C./5% CO2 the cells were pre-incubated with and without (media only) exogenous FGF-2 (1 ng/ml) and Compound 10 (0.002 μM, 0.008 μM, 0.04 μM, 0.2 μM, or 1 μM; plated in triplicate) for 24 hours prior (D-1) to the addition of human coronavirus 229E at a pre-determined titer. On the day of viral infection (D0), and one and two days thereafter (D1 and D2), freshly prepared FGF-2 and Compound 10 were added. The cultures were incubated for 4 days at 37° C./5% CO2, after which the cells were stained for cell survival with the tetrazolium dye XTT.

HAP1 cells = assay: Cell survival (XTT) of HAP1 cells in the absence of virus; type: cell-based; settings: compound 0.002-1 μM, FGF-2 1 ng/ml
Procedure: as §1

CCN(CC)c1ccc(C=O)cc1 [Compound 10, 4-diethylaminobenzaldehyde]
shift of the TSA melting curve / stability of the complex [1]: increased stability of the complex
relative phosphorylation of FGFR1 (FGFR1): augmented the effects of FGF-2
rise in body weight following surgery [2]: not affected
sensorimotor recovery (forelimb placing, hindlimb placing, body swing tests) ([2]; up to Day 21, versus vehicle, p<0.001 two-way repeated-measures ANOVA): clear and significant augmentation of sensorimotor recovery
cell survival of HAP1 cells infected with human coronavirus 229E (human coronavirus 229E): increases cell survival
cell survival in the absence of the virus (HAP1 cells): no effect on cell survival
